Marks after values point to notes of the source that are not given here.
Experiments:
[1] = target: T1, hNET (Homo sapiens, UniProt P23975); assay: fluorescence-based norepinephrine reuptake inhibition assay (Tsuruda et al. 2010; data indicated by an asterisk); assay type: cell-based; set-up: expressed in transfected cells; host or cells: HEK-293; conditions: norepinephrine reuptake inhibition, fluorescence-based assay (values with asterisk); for IC50: read-out: NET pIC50 (converted)
[2] = target: T2, hSERT (Homo sapiens, UniProt P31645); assay: hSERT membrane radioligand binding assay (3H-citalopram), Assay 1; conditions: SERT pKi, hSERT HEK-293 membranes, 1.0 nM 3H-citalopram; values given as lower bounds
[3] = target: T1, hNET; assay: hNET membrane radioligand binding assay (3H-nisoxetine), Assay 1
[4] = target: T2, hSERT; assay: fluorescence-based serotonin reuptake inhibition assay (Tsuruda et al. 2010; data indicated by an asterisk); assay type: cell-based; set-up: expressed in transfected cells; host or cells: HEK-293; conditions: fluorescence-based assay (values with asterisk), read-out: SERT pIC50 (converted)

T2 sequence (P31645 whole entry): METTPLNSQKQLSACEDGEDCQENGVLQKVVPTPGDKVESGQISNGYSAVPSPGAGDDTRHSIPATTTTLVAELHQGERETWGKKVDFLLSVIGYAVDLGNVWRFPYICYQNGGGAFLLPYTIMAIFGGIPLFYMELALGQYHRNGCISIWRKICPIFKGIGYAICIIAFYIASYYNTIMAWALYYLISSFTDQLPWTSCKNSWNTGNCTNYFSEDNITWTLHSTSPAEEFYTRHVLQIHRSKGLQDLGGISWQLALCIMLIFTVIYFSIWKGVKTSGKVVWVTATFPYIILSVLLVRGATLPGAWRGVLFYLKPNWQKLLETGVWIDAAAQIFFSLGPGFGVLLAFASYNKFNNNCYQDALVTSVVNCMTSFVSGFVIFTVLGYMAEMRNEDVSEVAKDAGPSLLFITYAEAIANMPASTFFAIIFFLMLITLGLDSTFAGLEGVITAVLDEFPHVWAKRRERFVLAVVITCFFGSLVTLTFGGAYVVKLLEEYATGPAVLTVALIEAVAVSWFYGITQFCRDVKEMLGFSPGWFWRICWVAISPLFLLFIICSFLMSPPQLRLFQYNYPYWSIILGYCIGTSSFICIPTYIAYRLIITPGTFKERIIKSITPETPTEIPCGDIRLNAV
T1 sequence (P23975 whole entry): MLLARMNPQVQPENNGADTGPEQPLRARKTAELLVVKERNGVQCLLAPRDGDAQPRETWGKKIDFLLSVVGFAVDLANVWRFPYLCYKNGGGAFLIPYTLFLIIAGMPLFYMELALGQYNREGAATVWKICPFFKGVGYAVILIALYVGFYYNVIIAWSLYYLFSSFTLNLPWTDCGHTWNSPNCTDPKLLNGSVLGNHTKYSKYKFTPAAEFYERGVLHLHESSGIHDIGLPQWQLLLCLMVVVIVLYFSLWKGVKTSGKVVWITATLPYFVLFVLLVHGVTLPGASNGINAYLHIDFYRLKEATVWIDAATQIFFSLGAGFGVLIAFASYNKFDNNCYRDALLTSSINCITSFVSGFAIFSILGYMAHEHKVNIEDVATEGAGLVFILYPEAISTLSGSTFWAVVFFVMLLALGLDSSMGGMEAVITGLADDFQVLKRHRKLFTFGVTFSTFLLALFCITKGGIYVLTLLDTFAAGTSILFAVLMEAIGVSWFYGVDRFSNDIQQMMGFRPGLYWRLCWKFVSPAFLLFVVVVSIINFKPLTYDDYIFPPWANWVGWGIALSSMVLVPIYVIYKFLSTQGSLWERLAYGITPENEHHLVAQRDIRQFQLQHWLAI

Row | Structure (SMILES) | IC50 [1] [nM] | Ki [2] [nM] | Ki [3] [nM] | IC50 [4] [nM] | NET pIC50 [1]
1 | CCC[C@@H](Oc1cc(Cl)cc(Cl)c1)[C@@H]1CCNC1 [Example 4-9, (R)-3-[(R)-1-(3,5-Dichlorophenoxy)butyl]pyrrolidine] | ≤ 10 | ≤ 10 | ≤ 10 | ≤ 10 | –
2 | CCC[C@@H](Oc1cccc(Cl)c1C(F)(F)F)[C@@H]1CCNC1 [Example 4-71, (R)-3-[(R)-1-(3-Chloro-2-trifluoromethylphenoxy)butyl]pyrrolidine] | ≤ 100 | ≤ 10 | ≤ 10 | ≤ 100 | –
3 | CC(C)[C@H](Oc1c(Cl)cccc1Cl)[C@H]1CCNC1 [Example 6-28, (S)-3-[(S)-1-(2,6-Dichlorophenoxy)-2-methylpropyl]pyrrolidine] | ≤ 10 | ≤ 10 | ≤ 10 | ≤ 100 | –
4 | CC(C)[C@H](Oc1cccc(Cl)c1C(F)(F)F)[C@H]1CCNC1 [Example 6-49, (S)-3-[(S)-1-(3-Chloro-2-trifluoromethylphenoxy)-2-methylpropyl]pyrrolidine] | ≤ 10 | ≤ 10 | ≤ 10 | ≤ 100 | –
5 | CC(C)[C@H](Oc1ccc(Cl)cc1C(F)(F)F)[C@H]1CCNC1 [Example 6-51, (S)-3-[(S)-1-(4-Chloro-2-trifluoromethylphenoxy)-2-methylpropyl]pyrrolidine] | ≤ 10 | ≤ 10 | ≤ 10 | ≤ 100 | –
6 | CC(C)C[C@H](Oc1cccc(Cl)c1Cl)[C@H]1CCNC1 [Example 9, (S)-3-[(S)-1-(2,3-Dichlorophenoxy)-3-methylbutyl]pyrrolidine] | ≤ 10 | ≤ 10 | ≤ 10 | ≤ 10 | –
7 | CC(C)C[C@H](Oc1cccc(Cl)c1Cl)[C@@H]1CCNC1 [Example 10-24, (R)-3-[(S)-1-(2,3-Dichlorophenoxy)-3-methylbutyl]pyrrolidine] | ≤ 10 | ≤ 10 | ≤ 10 | ≤ 10 | –
8 | CC(C)C[C@H](Oc1cccc(F)c1Cl)[C@@H]1CCNC1 [Example 10-28, (R)-3-[(S)-1-(2-Chloro-3-fluorophenoxy)-3-methylbutyl]pyrrolidine] | ≤ 10 | ≤ 10 | ≤ 10 | ≤ 10 | –
9 | Cc1c(Cl)cccc1O[C@@H](CC(C)C)[C@@H]1CCNC1 [Example 10-32, (R)-3-[(S)-1-(3-Chloro-2-methylphenoxy)-3-methylbutyl]pyrrolidine] | ≤ 10 | ≤ 10 | ≤ 10 | ≤ 10 | –
10 | Cc1c(Cl)cccc1O[C@@H](CC(C)C)[C@H]1CCNC1 [Example 10-33, (S)-3-[(S)-1-(3-Chloro-2-methylphenoxy)-3-methylbutyl]pyrrolidine] | ≤ 10 | ≤ 10 | ≤ 10 | ≤ 10 | –
11 | CC(C)C[C@@H](Oc1c(Cl)cccc1Cl)[C@H]1CCNC1 [Example 10-55, (S)-3-[(R)-1-(2,6-Dichlorophenoxy)-3-methylbutyl]pyrrolidine] | ≤ 10 | ≤ 10 | ≤ 10 | ≤ 100 | –
12 | CC(C)C[C@H](Oc1c(Cl)cccc1Cl)[C@@H]1CCNC1 [Example 10-56, (R)-3-[(S)-1-(2,6-Dichlorophenoxy)-3-methylbutyl]pyrrolidine] | ≤ 100 | ≤ 10 | ≤ 10 | ≤ 100 | –
13 | CC(C)C[C@H](Oc1cc(Cl)cc(Cl)c1)[C@@H]1CCNC1 [Example 10-80, (R)-3-[(S)-1-(3,5-Dichlorophenoxy)-3-methylbutyl]pyrrolidine] | ≤ 10 | ≤ 10 | ≤ 10 | ≤ 10 | –
14 | Clc1ccccc1O[C@@H](C1CC1)[C@H]1CCNC1 [Example 16-1, (S)-3-[(S)-(2-Chlorophenoxy)cyclopropylmethyl]pyrrolidine] | ≤ 10 | ≤ 10 | ≤ 10 | ≤ 100 | –
15 | Clc1ccccc1O[C@H](C1CC1)[C@H]1CCNC1 [Example 16-2, (S)-3-[(R)-(2-Chlorophenoxy)cyclopropylmethyl]pyrrolidine] | ≤ 10 | ≤ 10 | ≤ 10 | ≤ 100 | –
16 | Fc1c(Cl)cccc1O[C@@H](C1CC1)[C@H]1CCNC1 [Example 16-11, (S)-3-[(S)-(3-Chloro-2-fluorophenoxy)cyclopropylmethyl]pyrrolidine] | ≤ 10 | ≤ 10 | ≤ 10 | ≤ 10 | –
17 | Cc1cccc(O[C@@H](C2CC2)[C@H]2CCNC2)c1C [Example 16-12, (S)-3-[(S)cyclopropyl-(2,3-dimethylphenoxy)-methyl]pyrrolidine] | ≤ 10 | ≤ 10 | ≤ 10 | ≤ 10 | –
18 | CCOc1cc(Cl)ccc1O[C@@H](C1CC1)[C@H]1CCNC1 [Example 16-41, (S)-3-[(S)-(4-Chloro-2-ethoxyphenoxy)cyclopropylmethyl]pyrrolidine] | ≤ 10 | ≤ 10 | ≤ 10 | ≤ 100 | –

Row | Structure (SMILES) | IC50 [1] [nM] | Ki [2] [nM] | Ki [3] [nM] | IC50 [4] [nM] | NET pIC50 [1]
19 | CCOc1cc(Cl)ccc1O[C@H](C1CC1)[C@H]1CCNC1 [Example 16-42, (S)-3-[(R)-(4-Chloro-2-ethoxyphenoxy)cyclopropylmethyl]pyrrolidine] | ≤ 100 | ≤ 10 | ≤ 100 | ≤ 100 | –
20 | Fc1ccc(O[C@@H](C2CC2)[C@H]2CCNC2)c(F)c1F [Example 16-46, (S)-3-[(S)cyclopropyl-(2,3,4-trifluorophenoxy)methyl]pyrrolidine] | ≤ 10 | ≤ 10 | ≤ 10 | ≤ 10 | –
21 | Fc1ccc(O[C@H](C2CC2)[C@H]2CCNC2)c(F)c1F [Example 16-47, (S)-3-[(R)cyclopropyl-(2,3,4-trifluorophenoxy)methyl]pyrrolidine] | ≤ 10 | ≤ 10 | ≤ 100 | ≤ 10 | –
22 | Cc1ccc(O[C@@H](C2CC2)[C@H]2CCNC2)c(F)c1F [Example 16-50, (S)-3-[(S)cyclopropyl-(2,3-difluoro-4-methylphenoxy)methyl]pyrrolidine] | ≤ 10 | ≤ 10 | ≤ 10 | ≤ 10 | –
23 | Fc1c(Cl)ccc(O[C@@H](C2CC2)[C@H]2CCNC2)c1Cl [Example 16-52, (S)-3-[(S)cyclopropyl-(2,4-dichloro-3-fluorophenoxy)methyl]pyrrolidine] | ≤ 10 | ≤ 10 | ≤ 10 | ≤ 10 | –
24 | Fc1ccc(O[C@@H](C2CC2)[C@H]2CCNC2)c(F)c1Cl [Example 16-53, (S)-3-[(S)-(3-Chloro-2,4-difluorophenoxy)cyclopropylmethyl]pyrrolidine] | ≤ 10 | ≤ 10 | ≤ 10 | ≤ 10 | –
25 | COc1c(F)ccc(O[C@@H](C2CC2)[C@H]2CCNC2)c1F [Example 16-54, (S)-3-[(S)cyclopropyl-(2,4-difluoro-3-methoxyphenoxy)methyl]pyrrolidine] | ≤ 10 | ≤ 10 | ≤ 10 | ≤ 10 | –
26 | COc1c(O[C@H](C2CC2)[C@H]2CCNC2)ccc(Cl)c1Cl [Example 16-56, (S)-3-[(R)cyclopropyl-(3,4-dichloro-2-methoxyphenoxy)methyl]pyrrolidine] | ≤ 316 | ≤ 10 | ≤ 316 | ≤ 10 | –
27 | Fc1ccc(Cl)c(Cl)c1O[C@@H](C1CC1)[C@H]1CCNC1 [Example 16-59, (S)-3-[(S)cyclopropyl-(2,3-dichloro-6-fluorophenoxy)methyl]pyrrolidine] | ≤ 10 | ≤ 10 | ≤ 10 | ≤ 10 | –
28 | Fc1ccc(Cl)c(Cl)c1O[C@H](C1CC1)[C@H]1CCNC1 [Example 16-60, (S)-3-[(R)cyclopropyl-(2,3-dichloro-6-fluorophenoxy)methyl]pyrrolidine] | ≤ 10 | ≤ 10 | ≤ 10 | ≤ 10 | –
29 | Cc1ccc(F)c(O[C@@H](C2CC2)[C@H]2CCNC2)c1Cl [Example 16-62, (S)-3-[(S)-(2-Chloro-6-fluoro-3-methylphenoxy)cyclopropylmethyl]pyrrolidine] | ≤ 10 | ≤ 10 | ≤ 10 | ≤ 100 | –
30 | Cc1cc(Cl)ccc1OC(C1CCCC1)C1CCNC1 (centres unmarked) [Example 18-7, 3-[(4-Chloro-2-methylphenoxy)cyclopentylmethyl]pyrrolidine] | ≤ 100 | – | – | ≤ 10 | –
31 | Clc1cccc(Cl)c1OC(C1CCCC1)C1CCNC1 (centres unmarked) [Example 18-8, 3-[Cyclopentyl-(2,6-dichlorophenoxy)methyl]pyrrolidine] | ≤ 10 | – | – | ≤ 100 | –
32 | Clc1cc(Cl)cc(OC(C2CCCC2)C2CCNC2)c1 (centres unmarked) [Example 18-9, 3-[Cyclopentyl-(3,5-dichlorophenoxy)methyl]pyrrolidine] | ≤ 10 | – | – | ≤ 10 | –
33 | Clc1cc(Cl)cc(OC(C2CCCC2)C2CCNC2)c1 (centres unmarked) [Example 18-10, 3-[Cyclopentyl-(3,5-dichlorophenoxy)methyl]pyrrolidine] | – | – | – | ≤ 100 | ≧8.0*
34 | Clc1ccc(OC(C2CCCC2)C2CCNC2)cc1 (centres unmarked) [Example 18-11, 3-[(4-Chlorophenoxy)cyclopentylmethyl]pyrrolidine] | ≤ 100 | – | – | ≤ 10 | –
35 | Fc1ccc(OC(C2CCCC2)C2CCNC2)cc1 (centres unmarked) [Example 18-12, 3-[Cyclopentyl-(4-fluorophenoxy)methyl]pyrrolidine] | ≤ 100 | – | – | ≤ 100 | –
